Source: patent US12421212B2, “Substituted benzenecarboxamides as IL-17A modulators” (DiCE Alpha, Inc., priority 2019, dated 2025)

Target: T1, IL-17A/A (Homo sapiens, UniProt Q16552)
T1 construct: purchased Genscript Z03228
T1 sequence (Q16552 24-155): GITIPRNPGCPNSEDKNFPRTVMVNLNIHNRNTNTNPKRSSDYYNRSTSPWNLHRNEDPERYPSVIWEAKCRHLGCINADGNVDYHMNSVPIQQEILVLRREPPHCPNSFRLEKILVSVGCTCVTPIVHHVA
Assay: IL-17A/A HEK-Blue Cell Assay
Assay type: cell-based
Settings: HEK-Blue IL-17A reporter cell line, SEAP readout at A630, 20 hours incubation with IL-17A/A, top concentration 10 uM, 1 uM or 0.3 uM; for IC50: read-out: IL-17A/A inhibition (pIC50) (converted)

Row | Structure (SMILES) | IC50 [nM] | IL-17A/A inhibition (pIC50)
1 | CCC(=O)N[C@H](Cc1ccc(NC(=O)[C@@H](NC(=O)c2ccnn2C2CC2)C2CCCCC2)c(F)c1)C(=O)N1CCN(C)CC1 [Compound 676] | 100 to 10000 | –
2 | CCC(=O)N[C@H](Cc1ccc(NC(=O)[C@@H](NC(=O)c2ccnn2CC)C2CCCCC2)c(F)c1)C(=O)N1CCN(Cc2ccccn2)CC1 [Compound 640] | 100 to 10000 | –
3 | CCc1nonc1C(=O)N[C@H](C(=O)Nc1ccc([C@H](C)[C@@H](NC(=O)C(F)F)C(=O)N2CCN(C)[C@@H](C)C2)cc1F)[C@H]1CC[C@H](C)CC1 [Compound 512] | – | B (8>B≥7 as B)
4 | CCC(=O)N[C@@H](C(=O)N1CCN(C)CC1)[C@@H](C)c1ccc(NC(=O)[C@@H](NC(=O)c2ccc(CNC(=O)COCC(=O)O)s2)C2CCCCC2)c(F)c1 [Compound 767] | 100 to 10000 | –
5 | CCC(=O)N[C@H](Cc1ccc(NC(=O)[C@@H](NC(=O)c2nn(C)c3c2CNCC3)C2CCCCC2)c(F)c1)C(=O)N1CCN(C)CC1 [Compound 706] | – | X2b (compounds were evaluated up to 1 uM and inhibited activity at 1 uM by less than 20%)
6 | CCc1nonc1C(=O)N[C@H](C(=O)Nc1ccc([C@H](C)[C@@H](NC(C)=O)C(=O)N2CCN(C)[C@@H](C)C2)cc1F)[C@H]1CC[C@H](C)CC1 [Compound 511] | – | A (compounds having a pIC50 of greater than or equal 8 as A)
7 | CCC(=O)N[C@@H](C(=O)N1CCS(=O)(=O)CC1)[C@@H](C)c1ccc(NC(=O)[C@@H](NC(=O)C(F)(F)c2cccc(C#N)c2)C2CCCCCC2)c(F)c1 [Compound 354] | < 10 | –
8 | CCn1nccc1C(=O)N[C@H](C(=O)Nc1ccc(C[C@@H](NC(=O)c2ccnn2-c2ccc(=O)[nH]c2)C(=O)N2CCN(C)CC2)cc1F)C1CCCCC1 [Compound 623] | 100 to 10000 | –
9 | CCC(=O)N[C@H](Cc1ccc(NC(=O)[C@@H](NC(=O)c2noc3c2CNCC3)C2CCCCC2)c(F)c1)C(=O)N1CCN(C)CC1 [Compound 705] | – | X2b (compounds were evaluated up to 1 uM and inhibited activity at 1 uM by less than 20%)
10 | CCC(=O)N[C@H](Cc1ccc(NC(=O)[C@@H](NC(=O)c2ccnn2CC)C2CCCCC2)c(F)c1)C(=O)N1CC2(CCN(C)CC2)C1 [Compound 751] | – | X2b (compounds were evaluated up to 1 uM and inhibited activity at 1 uM by less than 20%)
11 | CCn1nccc1C(=O)N[C@H](C(=O)Nc1ccc([C@H](C)[C@@H](NC(=O)c2cnns2)C(=O)N2CCC(C)(O)CC2)cc1F)[C@H]1CC[C@H](C)CC1 [Compound 440] | < 10 | –
12 | CCC(=O)N[C@@H](C(=O)N1CCN(C)CC1)[C@@H](C)c1ccc(NC(=O)C(NC(=O)c2ccnn2CC)C(CC)c2ccc(F)cc2)c(F)c1 (single isomer, unassigned) [Compound 553] | – | X2a (compounds were evaluated up to 1 uM and did not inhibit activity by >80%, however they showed some activity at 1 uM (less than 80% and more than 20%))
13 | CCC(=O)N[C@@H](C(=O)N1CCN(C)CC1)[C@@H](C)c1ccc(NC(=O)[C@@H](NC(=O)c2conc2CC)C2CCCCC2)cc1 [Compound 298] | 10 to 100 | –

The next lines start with results.

Row | IC50 [nM] | Structure (SMILES) | IL-17A/A inhibition (pIC50)
14 | 10 to 100 | CCC(=O)N[C@@H](C(=O)N1CCN(C)CC1)[C@@H](C)c1ccc(NC(=O)[C@@H](NC(=O)C(F)(F)c2cncc(OC)c2)C2CCCCCC2)c(F)c1 [Compound 262] | –
15 | 10 to 100 | CNC(=O)N[C@@H](C(=O)N1CCN(C)CC1)[C@@H](C)c1ccc(NC(=O)[C@@H](NC(=O)C(F)(F)c2cccc(C#N)c2)C2CCCCC2)c(F)c1 [Compound 317] | –
16 | 10 to 100 | CCc1nonc1C(=O)N[C@H](C(=O)Nc1ccc([C@H](C)[C@@H](NC(=O)C(C)(F)F)C(=O)N2CCN(C)[C@H](C)C2)cc1F)[C@H]1CC[C@H](C)CC1 [Compound 503] | –
17 | 100 to 10000 | CCC(=O)N[C@@H](C(=O)N1CCN(C)CC1)[C@@H](C)c1ccc(NC(=O)[C@@H](NC(=O)C(F)(F)C23CC(C2)C3)C2CCCCC2)c(F)c1 [Compound 625] | –
18 | < 10 | CCC(=O)N[C@@H](C(=O)N1CCC(C)(O)CC1)[C@@H](C)c1ccc(NC(=O)[C@@H](NC(=O)C(F)(F)c2cnn(CC)c2)[C@H]2CC[C@H](C)CC2)c(F)c1 [Compound 533] | –
19 | < 10 | CCC(=O)N[C@@H](C(=O)N1CCN(C)CC1)[C@@H](C)c1ccc(NC(=O)[C@@H](NC(=O)c2ccnn2C2CCCC2)C2CCCCCC2)c(F)c1 [Compound 273] | –
20 | 10 to 100 | CCC(=O)N[C@@H](C(=O)N1CCN(C)CC1)[C@@H](C)c1ccc(NC(=O)[C@@H](NC(=O)c2nnnn2CC)[C@H]2CC[C@H](C)CC2)c(F)c1 [Compound 527] | –
21 | < 10 | CCC(=O)N[C@@H](C(=O)N1CCN(CC)[C@@H](C)C1)[C@@H](C)c1ccc(NC(=O)[C@@H](NC(=O)c2ccnn2CC)[C@H]2CC[C@H](C)CC2)c(F)c1 [Compound 427] | –
22 | 10 to 100 | CCn1nccc1C(=O)N[C@H](C(=O)Nc1ccc([C@H](C)C(NC(=O)C(C)F)C(=O)N2CCN(C)[C@H](C)C2)cc1F)[C@H]1CC[C@H](C)CC1 (single isomer, unassigned) [Compound 596] | –
23 | < 10 | COc1ccc(C(F)(F)C(=O)N[C@H](C(=O)Nc2ccc([C@H](C)[C@@H](NC(=O)c3cnns3)C(=O)N3CCN(C)CC3)cc2F)C2CCCCC2)cn1 [Compound 224] | –
24 | < 10 | CCC(=O)N[C@@H](C(=O)N1CCN(C)CC1)[C@@H](C)c1ccc(NC(=O)[C@@H](NC(=O)C(F)(F)c2cnn(CC)c2)[C@H]2CC[C@H](C)CC2)c(F)c1 [Compound 523] | –
25 | 10 to 100 | CCC(=O)N[C@@H](C(=O)N1CCN(C)CC1)[C@@H](C)c1ccc(NC(=O)[C@@H](NC(=O)C(F)(F)c2cncc(OC)c2)[C@H]2CC[C@H](C)CC2)c(F)c1 [Compound 281] | –
26 | 100 to 10000 | CCn1nccc1C(=O)N[C@H](C(=O)Nc1ccc([C@H](C)[C@@H](NC(=O)c2cnc(C)n2C)C(=O)N2CCN(C)CC2)cc1F)C1CCCCC1 [Compound 678] | –
27 | < 10 | CCC(=O)N[C@@H](C(=O)N1CCN(C)CC1)[C@@H](C)c1ccc(NC(=O)C(NC(=O)c2ccnn2CC)C2CCc3cc(F)ccc32)c(F)c1 (single isomer, unassigned) [Compound 568] | –
28 | 10 to 100 | CCC(=O)N[C@@H](C(=O)N1CCN(C)CC1)[C@@H](C)c1ccc(NC(=O)[C@@H](NC(=O)c2coc3ccncc23)C2CCCCC2)c(F)c1 [Compound 247] | –
